Source: PubChem BioAssay AID256 (DTP/NCI, 2004)
“And” between values parts separate entries of the source, which are not always exact repeats. Equal values may be shown once. Inconclusive results and toxic doses are left out.

System: CD2F1 mice, L1210 leukemia ip, survival T/C
Test: NCI In Vivo Anticancer Drug Screen. Data for tumor model L1210 Leukemia (intraperitoneal) in CD2F1 (CDF1) mice
Conditions: higher = longer survival
How it was run: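 Vehicle-treated tumor-bearing mice served as controls (C) for compound-treated mice (T). Reported figure is T divided by C.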

[1] = endpoint: mean survival time, dose: 25.0 mg/kg/injection, schedule: Q04DX003 (ip), vehicle: saline
[2] = endpoint: mean survival time, dose: 50.0 mg/kg/injection, schedule: Q04DX003 (ip), vehicle: saline
[3] = endpoint: mean survival time, dose: 100.0 mg/kg/injection, schedule: Q04DX003 (ip), vehicle: saline
[4] = endpoint: mean survival time, dose: 100.0 mg/kg/injection, schedule: Q04DX002 (ip), vehicle: saline with Tween-80
[5] = endpoint: mean survival time, dose: 100.0 mg/kg/injection, schedule: Q01DX009 (ip), vehicle: saline with Tween-80
[6] = endpoint: mean survival time, dose: 200.0 mg/kg/injection, schedule: Q01DX009 (ip), vehicle: saline with Tween-80
[7] = endpoint: mean survival time, dose: 400.0 mg/kg/injection, schedule: Q01DX009 (ip), vehicle: saline with Tween-80
[8] = endpoint: mean survival time, dose: 25.0 mg/kg/injection, schedule: Q01DX009 (ip), vehicle: saline with Tween-80
[9] = endpoint: mean survival time, dose: 50.0 mg/kg/injection, schedule: Q01DX009 (ip), vehicle: saline with Tween-80

In the case of [Cl][Pt+2][Cl].[NH-]CC1(C[NH-])CCC1, the T/C (endpoint: mean survival time, dose: 3.12 mg/kg/injection, schedule: Q04DX003 (ip), vehicle: saline) is reported as 111 % of control, the T/C (endpoint: mean survival time, dose: 12.5 mg/kg/injection, schedule: Q04DX003 (ip), vehicle: saline) is reported as 229 % of control and the T/C [1] is reported as 272 % of control. For the same compound, the T/C [2] was 174 % of control and 231 % of control, the T/C [3] was 164 % of control and 335 % of control and the T/C (endpoint: mean survival time, dose: 200.0 mg/kg/injection, schedule: Q04DX003 (ip), vehicle: saline) was 90 % of control. The T/C (endpoint: median survival time, dose: 0.1 mg/kg/injection, schedule: Q01DX009 (ip), vehicle: Klucel (hydroxypropylcellulose) (HPC)) was 111 % of control, the T/C (endpoint: median survival time, dose: 0.2 mg/kg/injection, schedule: Q01DX009 (ip), vehicle: Klucel (hydroxypropylcellulose) (HPC)) was 111 % of control and the T/C (endpoint: median survival time, dose: 1.5 mg/kg/injection, schedule: Q01DX009 (ip), vehicle: carboxymethylcellulose (CMC)) was 239 % of control. For the same compound, the T/C (endpoint: median survival time, dose: 3.0 mg/kg/injection, schedule: Q01DX009 (ip), vehicle: carboxymethylcellulose (CMC)) was 281 % of control, the T/C (endpoint: median survival time, dose: 3.12 mg/kg/injection, schedule: Q01DX009 (ip), vehicle: Klucel (hydroxypropylcellulose) (HPC)) was 222 % of control and 320 % of control and the T/C (endpoint: median survival time, dose: 3.13 mg/kg/injection, schedule: Q01DX009 (ip), vehicle: Klucel (hydroxypropylcellulose) (HPC)) was 169 % of control and 206 % of control. For the same compound, the T/C (endpoint: median survival time, dose: 6.0 mg/kg/injection, schedule: Q01DX001 (ip), vehicle: carboxymethylcellulose (CMC)) was 171 % of control, the T/C (endpoint: median survival time, dose: 8.0 mg/kg/injection, schedule: Q01DX001 (ip), vehicle: other) was 186 % of control and the T/C (endpoint: median survival time, dose: 9.0 mg/kg/injection, schedule: Q01DX001 (ip), vehicle: carboxymethylcellulose (CMC)) was 176 % of control. For the same compound, the T/C (endpoint: median survival time, dose: 9.0 mg/kg/injection, schedule: Q01DX009 (ip), vehicle: carboxymethylcellulose (CMC)) was 114 % of control, the T/C (endpoint: median survival time, dose: 12.0 mg/kg/injection, schedule: Q01DX001 (ip), vehicle: carboxymethylcellulose (CMC)) was 203 % of control and the T/C (endpoint: median survival time, dose: 12.0 mg/kg/injection, schedule: Q01DX001 (ip), vehicle: other) was 212 % of control. The T/C (endpoint: median survival time, dose: 15.0 mg/kg/injection, schedule: Q01DX001 (ip), vehicle: carboxymethylcellulose (CMC)) was 203 % of control, the T/C (endpoint: median survival time, dose: 16.0 mg/kg/injection, schedule: Q01DX001 (ip), vehicle: other) was 242 % of control and the T/C (endpoint: median survival time, dose: 20.0 mg/kg/injection, schedule: Q01DX001 (ip), vehicle: other) was 103 % of control.

With Clc1ccc([I+]c2ccc(Cl)cc2)cc1 the T/C (endpoint: median survival time, dose: 25.0 mg/kg/injection, schedule: Q04DX002 (ip), vehicle: saline with Tween-80) was 102 % of control, the T/C (endpoint: median survival time, dose: 50.0 mg/kg/injection, schedule: Q04DX002 (ip), vehicle: saline with Tween-80) was 98 % of control and the T/C (endpoint: median survival time, dose: 100.0 mg/kg/injection, schedule: Q04DX002 (ip), vehicle: saline with Tween-80) was 91 % of control.

For O=c1n(-c2ccccc2)c(=O)n(-c2ccccc2)c(=O)n1-c1ccccc1, the T/C (endpoint: mean survival time, dose: 100.0 mg/kg/injection, schedule: Q01DX001 (ip), vehicle: Klucel (hydroxypropylcellulose) (HPC)) was 93 % of control, the T/C (endpoint: mean survival time, dose: 200.0 mg/kg/injection, schedule: Q01DX001 (ip), vehicle: Klucel (hydroxypropylcellulose) (HPC)) was 90 % of control and the T/C (endpoint: mean survival time, dose: 400.0 mg/kg/injection, schedule: Q01DX001 (ip), vehicle: Klucel (hydroxypropylcellulose) (HPC)) was 101 % of control.

In the case of c1cc[n+](Cc2nc3ccccc3[nH]2)cc1, the T/C (endpoint: mean survival time, dose: 25.0 mg/kg/injection, schedule: Q01DX009 (ip), vehicle: saline) is reported as 97 % of control and 100 % of control, the T/C [1] is reported as 103 % of control and 100 % of control and the T/C (endpoint: mean survival time, dose: 50.0 mg/kg/injection, schedule: Q01DX009 (ip), vehicle: saline) is reported as 100 % of control. For the same compound, the T/C [2] was 100 % of control and 106 % of control, the T/C (endpoint: mean survival time, dose: 100.0 mg/kg/injection, schedule: Q01DX009 (ip), vehicle: saline) was 101 % of control and 97 % of control and the T/C [3] was 97 % of control and 103 % of control.

In the case of CN(C)C(=S)Oc1c([N+](=O)[O-])cc([N+](=O)[O-])cc1C(C)(C)C, the T/C [4] is reported as 91 % of control.

CC(=O)Nc1ccc(OC(=O)Nc2cccc(F)c2)cc1 was tested, and the T/C [5] was 91 % of control, the T/C [6] was 95 % of control and the T/C [7] was 91 % of control.

For NCCSc1ccccc1, the T/C (endpoint: mean survival time, dose: 12.5 mg/kg/injection, schedule: Q01DX009 (ip), vehicle: saline with Tween-80) was 89 % of control, the T/C [8] was 89 % of control and the T/C [9] was 90 % of control and 108 % of control. For the same compound, the T/C [5] was 87 % of control and 98 % of control.

For Nc1ncnc2c1c(CO)cn2C1OC(CO)C(O)C1O (centres undefined), the T/C (endpoint: mean survival time, dose: 25.0 mg/kg/injection, schedule: Q01DX005 (ip), vehicle: distilled water + Tween-80) was 109 % of control, the T/C (endpoint: mean survival time, dose: 50.0 mg/kg/injection, schedule: Q01DX005 (ip), vehicle: distilled water + Tween-80) was 117 % of control and the T/C (endpoint: mean survival time, dose: 100.0 mg/kg/injection, schedule: Q01DX005 (ip), vehicle: distilled water + Tween-80) was 113 % of control.

CCCCS(=O)(=O)CC(O)c1ccccc1 (centres undefined) was tested, and the T/C [4] was 115 % of control, the T/C (endpoint: mean survival time, dose: 200.0 mg/kg/injection, schedule: Q04DX002 (ip), vehicle: saline with Tween-80) was 101 % of control and the T/C (endpoint: mean survival time, dose: 400.0 mg/kg/injection, schedule: Q04DX002 (ip), vehicle: saline with Tween-80) was 104 % of control.

O=[N+]([O-])c1ccc(S(=O)Cc2ccccc2)c([N+](=O)[O-])c1 (centres undefined) was tested, and the T/C (endpoint: mean survival time, dose: 75.0 mg/kg/injection, schedule: Q01DX001 (ip), vehicle: other) was 100 % of control.

With ClC(Cl)(Cl)c1nc2nccnc2[nH]1 the T/C (endpoint: mean survival time, dose: 25.0 mg/kg/injection, schedule: Q01DX009 (ip), vehicle: saline sonified) was 100 % of control, the T/C (endpoint: mean survival time, dose: 50.0 mg/kg/injection, schedule: Q01DX009 (ip), vehicle: saline sonified) was 104 % of control and the T/C (endpoint: mean survival time, dose: 100.0 mg/kg/injection, schedule: Q01DX009 (ip), vehicle: saline sonified) was 94 % of control.

COC(=O)c1ccc(N=NN(C)C)cc1 was tested, and the T/C (endpoint: mean survival time, dose: 23.0 mg/kg/injection, schedule: Q01DX009 (ip), vehicle: Klucel (hydroxypropylcellulose) (HPC)) was 108 % of control, the T/C (endpoint: mean survival time, dose: 39.0 mg/kg/injection, schedule: Q01DX009 (ip), vehicle: Klucel (hydroxypropylcellulose) (HPC)) was 108 % of control and the T/C (endpoint: mean survival time, dose: 65.0 mg/kg/injection, schedule: Q01DX009 (ip), vehicle: Klucel (hydroxypropylcellulose) (HPC)) was 116 % of control.

With NS(=O)(=O)c1cccc(C(=O)O)c1 the T/C (endpoint: mean survival time, dose: 100.0 mg/kg/injection, schedule: Q01DX001 (ip), vehicle: saline with Tween-80) was 98 % of control, the T/C (endpoint: mean survival time, dose: 200.0 mg/kg/injection, schedule: Q01DX001 (ip), vehicle: saline with Tween-80) was 94 % of control and the T/C (endpoint: mean survival time, dose: 400.0 mg/kg/injection, schedule: Q01DX001 (ip), vehicle: saline with Tween-80) was 98 % of control.

With NC(=S)N/N=C1\c2cc(Cl)ccc2-c2c1cc(Cl)cc2[N+](=O)[O-] the T/C (endpoint: mean survival time, dose: 50.0 mg/kg/injection, schedule: Q01DX001 (ip), vehicle: carboxymethylcellulose (CMC)) was 102 % of control and the T/C (endpoint: mean survival time, dose: 100.0 mg/kg/injection, schedule: Q01DX001 (ip), vehicle: carboxymethylcellulose (CMC)) was 102 % of control.

In the case of CCCCOC(=O)CCC(NC(=O)c1ccc(N(C)Cc2cnc3nc(N)nc(N)c3n2)cc1)C(=O)O (centres undefined), the T/C (endpoint: mean survival time, dose: 0.19 mg/kg/injection, schedule: Q01DX009 (ip), vehicle: water) is reported as 112 % of control, the T/C (endpoint: mean survival time, dose: 0.38 mg/kg/injection, schedule: Q01DX009 (ip), vehicle: water) is reported as 120 % of control and the T/C (endpoint: mean survival time, dose: 1.5 mg/kg/injection, schedule: Q01DX009 (ip), vehicle: water) is reported as 159 % of control. For the same compound, the T/C (endpoint: mean survival time, dose: 3.0 mg/kg/injection, schedule: Q01DX009 (ip), vehicle: water) was 180 % of control and the T/C (endpoint: mean survival time, dose: 6.0 mg/kg/injection, schedule: Q01DX009 (ip), vehicle: water) was 86 % of control.

For CNC(=O)C(=O)NC, the T/C [5] was 96 % of control, the T/C (endpoint: mean survival time, dose: 100.0 mg/kg/injection, schedule: Q04DX003 (ip), vehicle: saline with Tween-80) was 101 % of control and the T/C [6] was 98 % of control. The T/C (endpoint: mean survival time, dose: 200.0 mg/kg/injection, schedule: Q04DX003 (ip), vehicle: saline with Tween-80) was 98 % of control, the T/C [7] was 98 % of control and the T/C (endpoint: mean survival time, dose: 400.0 mg/kg/injection, schedule: Q04DX003 (ip), vehicle: saline with Tween-80) was 101 % of control.

For C/C(=C\Cl)CNC(C)C, the T/C [8] was 101 % of control, the T/C [9] was 100 % of control and the T/C (endpoint: mean survival time, dose: 100.0 mg/kg/injection, schedule: Q01DX001 (ip), vehicle: acetone) was 98 % of control.

Cn1c(=O)c2[nH]c(-c3ccc(Cl)cc3)nc2n(C)c1=O was tested, and the T/C (endpoint: mean survival time, dose: 12.5 mg/kg/injection, schedule: Q01DX005 (ip), vehicle: other) was 89 % of control, the T/C (endpoint: mean survival time, dose: 25.0 mg/kg/injection, schedule: Q01DX005 (ip), vehicle: other) was 89 % of control and the T/C (endpoint: mean survival time, dose: 50.0 mg/kg/injection, schedule: Q01DX005 (ip), vehicle: other) was 93 % of control. For the same compound, the T/C (endpoint: mean survival time, dose: 100.0 mg/kg/injection, schedule: Q01DX005 (ip), vehicle: other) was 89 % of control and the T/C (endpoint: mean survival time, dose: 200.0 mg/kg/injection, schedule: Q01DX005 (ip), vehicle: other) was 95 % of control.

With O=CNNC(=S)Nc1ccccc1 the T/C [9] was 100 % of control, the T/C [5] was 96 % of control and the T/C [6] was 96 % of control.

With COc1cc(NC(=O)Nc2ccccc2Cl)c(OC)cc1Cl the T/C (endpoint: mean survival time, dose: 25.0 mg/kg/injection, schedule: Q04DX002 (ip), vehicle: saline with Tween-80) was 98 % of control, the T/C (endpoint: mean survival time, dose: 50.0 mg/kg/injection, schedule: Q04DX002 (ip), vehicle: saline with Tween-80) was 94 % of control and the T/C [4] was 102 % of control.
